The text below walks through data of ChEMBL document CHEMBL5728524, “Apoptosis signal-regulating kinase inhibitors and uses thereof” (2021).

The target in this test is T1, Mitogen-activated protein kinase kinase kinase 5 (Homo sapiens, UniProt Q99683).
T1 sequence (Q99683 whole entry): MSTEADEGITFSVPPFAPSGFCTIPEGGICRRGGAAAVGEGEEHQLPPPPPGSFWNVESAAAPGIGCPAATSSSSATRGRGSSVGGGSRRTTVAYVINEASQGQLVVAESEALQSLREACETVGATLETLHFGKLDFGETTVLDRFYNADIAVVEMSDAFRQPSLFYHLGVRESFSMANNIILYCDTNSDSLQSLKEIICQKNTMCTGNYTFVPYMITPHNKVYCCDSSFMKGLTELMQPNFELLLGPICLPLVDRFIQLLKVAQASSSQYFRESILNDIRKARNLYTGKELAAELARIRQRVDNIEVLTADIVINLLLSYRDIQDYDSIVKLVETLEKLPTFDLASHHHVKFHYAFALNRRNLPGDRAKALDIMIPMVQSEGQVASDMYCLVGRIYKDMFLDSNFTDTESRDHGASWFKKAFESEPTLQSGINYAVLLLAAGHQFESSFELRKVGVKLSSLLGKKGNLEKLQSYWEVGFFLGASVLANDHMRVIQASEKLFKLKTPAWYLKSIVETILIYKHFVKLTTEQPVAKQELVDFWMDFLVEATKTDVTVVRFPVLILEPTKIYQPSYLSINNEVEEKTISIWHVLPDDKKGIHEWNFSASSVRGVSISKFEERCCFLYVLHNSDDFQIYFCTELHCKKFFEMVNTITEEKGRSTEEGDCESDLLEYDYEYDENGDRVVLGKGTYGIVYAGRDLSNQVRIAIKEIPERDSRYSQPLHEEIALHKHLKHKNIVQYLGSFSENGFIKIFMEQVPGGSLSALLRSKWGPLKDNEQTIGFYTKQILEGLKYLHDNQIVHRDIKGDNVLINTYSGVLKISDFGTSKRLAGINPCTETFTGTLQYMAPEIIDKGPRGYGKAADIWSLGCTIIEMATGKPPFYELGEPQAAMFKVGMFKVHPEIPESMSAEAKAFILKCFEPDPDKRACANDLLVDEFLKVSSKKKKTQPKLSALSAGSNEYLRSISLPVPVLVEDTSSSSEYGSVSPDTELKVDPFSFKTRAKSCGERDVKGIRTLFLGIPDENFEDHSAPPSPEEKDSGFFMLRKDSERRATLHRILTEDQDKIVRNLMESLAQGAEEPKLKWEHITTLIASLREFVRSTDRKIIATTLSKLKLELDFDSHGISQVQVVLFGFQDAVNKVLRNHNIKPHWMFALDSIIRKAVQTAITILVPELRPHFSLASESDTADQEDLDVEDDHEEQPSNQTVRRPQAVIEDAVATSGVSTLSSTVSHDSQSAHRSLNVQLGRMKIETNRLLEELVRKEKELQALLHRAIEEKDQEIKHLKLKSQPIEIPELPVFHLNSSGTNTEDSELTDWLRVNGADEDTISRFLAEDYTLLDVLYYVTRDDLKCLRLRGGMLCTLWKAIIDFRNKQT
Description: Biochemical Assay: The binding of compounds to ASK1 were determined using DiscoverX's proprietary technology. […] The assay is performed by combining three components: DNA-tagged ASK1 kinase; immobilized ligand; and a test compound. The ability of the test compound to compete with the immobilized ligand is measured via quantitative PCR of the DNA tag. […] The liganded beads were blocked with excess biotin and washed with blocking buffer (SeaBlock (Pierce), 1% BSA, 0.05% Tween 20, 1 mM DTT) to remove unbound ligand and to reduce nonspecific binding. […] Kds were determined using an 11-point 3-fold compound dilution series with three DMSO control points. […] The compounds were then diluted directly into the assays such that the final concentration of DMSO was 0.9%. All reactions were performed in polypropylene 384-well plate. […] The kinase concentration in the eluates was measured by qPCR. Most Kds were determined using a compound top concentration=30,000 nM. A general note: Quantitative PCR measures a nucleic acid by following its amplification.

By Kd is commonly meant the concentration at which binding is half-saturated. Turning to `O=C1Nc2cccc(n2)-c2nncn2CCCCOc2ccc(-c3ccc(CCF)nc3)cc21`, the dissociation constant Kd was below 100 nM.

For the compound `Cc1ncc(-c2ccc3c(c2)C(=O)Nc2cccc(n2)-c2nncn2CCCCO3)cc1F`, the Kd is below 100 nM.
